Measurements from patent publication US20230116399A1, “Tumor Homing Statin Derivatives” (Da Zen Theranostics, Inc., priority 2019, published 2023).
Like-named read-outs stand apart in the source and are kept apart here.

How the values were obtained:
[1] = test system: 22RV1 prostate cancer cells; test: Cell viability by trypan blue counting, 22RV1; format: cell-based, human; settings: read-out: IC50 for reduction of cell viability/growth inhibition
Method: Cell culture: In the following examples, unless otherwise specified, all cell lines are purchased from American Type Culture Collection and cultured in American Type Culture Collection (ATCC)-recommended media, with fetal bovine serum (FBS) to a final concentration of 10% and 1×penicillin/streptomycin at 37° C. with 5% CO2 in a cell culture incubator, unless otherwise specified. Unless otherwise specified, culture is 2D. Where culture is 3D, low attachment plates are used, with the same media. C4-2B (parental cell line and drug-resistant cells derived therefrom) are cultured in RPMI-1640 with 10% FBS. MDVR cells (an Enzalutamide-resistant variety of C4-2B prostate cancer cells formed as described in Example 4 below) are cultured as indicated for the parental C4-2B cells. 22RV1 Prostate Cancer (PC) cells (ATCC® CRL-2505™, a human prostate carcinoma cell line of epithelial morphology) are cultured in RPMI-1640 with 10% FBS. […]
Example 1B: Prostate Cancer (PC) cells (22RV1, ATCC® CRL-2505™, a human prostate carcinoma cell line) are cultured according to the standard protocol, and exposed for 24-48 hours, to 0-50 μM of the respective compound (THSD, unconjugated dye). Cell viability is determined by counting viable cells and dead cells after treatment of the cells with trypan blue dye to distinguish viable from dead cells. […]

[2] = test system: RhoA/B in H-1975 human lung cancer tumors; test: RhoA/B membrane staining of tumor tissue, H-1975 mouse model; format: in vivo, mice; settings: 5 mg/kg
Method: RhoA/RhoB membrane staining of tumor tissue of a H-1975 human lung cancer cell mouse model is performed as described below, and the tumor-bearing mice are treated with a THSD (here an ALSD of formula FIId, “DZ2a”, compound 7) in comparison to the corresponding unconjugated dye (“DZ1”) and to Gefinitib (an EGFR inhibitor drug used for treatment of certain breast, lung and other cancers).
H-1975 cells, a cell model for human lung cancer that is resistant to Gefitinib (an EGFR inhibitor drug used for treatment of certain breast, lung and other cancers) are cultured as described above and injected subcutaneously into mice to develop tumors. The mice and the tumors that are formed are systemically exposed to an ALSD (here of formula FIId, “DZ2a”, compound 7) by intravenous injection. The tumor-bearing mice are treated with either Gefitinib (20 mg/kg), or with an ALSD (here of formula FIId, “DZ2a”, compound 7, 5 mg/kg), an unconjugated dye of formula III (“DZ1”, 5 mg/kg) or a combination of the ALSD with Gefitinib.
For immunostaining of tumor tissue, the animals are sacrificed by prescribed and approved euthanasia techniques. Tumor tissue (maximum thickness 3 mm) is sliced, formalin fixated, embedded into paraffin blocks which are sectioned and processed into paraffin section slides. […]

Row | Compound | IC50 ([1]; 22RV1, exposed 24-48 hours, listed as unconjugated statin) [µM] | IC50 ([1]; Homo sapiens, 22Rv1, 22RV1, exposed 24-48 hours) [µM] | RhoA/B staining of tumor cell membranes [2]
1 | CCC(C)(C)C(=O)O[C@H]1C[C@@H](C)C=C2C=C[C@H](C)[C@H](CC[C@@H]3C[C@@H](O)CC(=O)O3)[C@H]21 [Simvastatin] | > 50 | > 60 | 
2 | CC1(C)C(/C=C/C2=C(Cl)C(=C/C=C3/N(CCCCCC(=O)O)c4ccccc4C3(C)C)/CCC2)=[N+](CCCCS(=O)(=O)[O-])c2ccccc21 [DZ1] |  |  | staining persists in the membranes
